# Experimental data taken from the supplement of paper PMC10307832.
# Legend:
# Assay in all cases: relative viability (nuclei count vs DMSO), 5 days (fraction); higher = more cells survive
# Trametinib + Pemetrexed = compound: CC(=O)Nc1cccc(-n2c(=O)n(C3CC3)c(=O)c3c(Nc4ccc(I)cc4F)n(C)c(=O)c(C)c32)c1 [Trametinib] + Nc1nc2[nH]cc(CCc3ccc(C(=O)N[C@@H](CCC(=O)O)C(=O)O)cc3)c2c(=O)[nH]1 [Pemetrexed] (partner 0.2 µM)
# Procedure, shortened: (§1)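 One day after seeding in 1536-well plates, lung cancer cell lines were dosed by pin tool. Dosing was either single-drug or a fixed anchor-drug dose plus five library-drug doses (not always all listed) in √10 steps. After 5 days, nuclei were stained in one fix-and-stain step and counted on 4× images, and relative viability is the nuclei count of treated wells over that of vehicle wells, given as the median of duplicate plates.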
# [1] = compound: CN1C=C(C2=CC=CC=C21)/C=C\3/C4=C(C=CC=N4)NC3=O + CCNC(=O)c1noc(-c2cc(C(C)C)c(O)cc2O)c1-c1ccc(CN2CCOCC2)cc1 [Luminespib] (partner 0.01 µM)
# Procedure, shortened: as §1
# Trametinib + Dasatinib = compound: CC(=O)Nc1cccc(-n2c(=O)n(C3CC3)c(=O)c3c(Nc4ccc(I)cc4F)n(C)c(=O)c(C)c32)c1 [Trametinib] + Cc1nc(Nc2ncc(C(=O)Nc3c(C)cccc3Cl)s2)cc(N2CCN(CCO)CC2)n1 [Dasatinib] (partner 0.075 µM)
# Procedure, shortened: as §1
# [2] = compound: CN1C=C(C2=CC=CC=C21)/C=C\3/C4=C(C=CC=N4)NC3=O + C[C@@H](Oc1cc(-c2cnn(C3CCNCC3)c2)cnc1N)c1c(Cl)ccc(F)c1Cl [Crizotinib] (partner 1 µM)
# Procedure, shortened: as §1
Cell Line,relative viability (Trametinib + Pemetrexed; first compound 0.0025 µM),relative viability (Trametinib + Pemetrexed; first compound 0.007906 µM),relative viability (Trametinib + Pemetrexed; first compound 0.025 µM),relative viability (Trametinib + Pemetrexed; first compound 0.07906 µM),relative viability (Trametinib + Pemetrexed; first compound 0.25 µM),relative viability ([1]; first compound 0.02 µM),relative viability ([1]; first compound 0.06325 µM),relative viability ([1]; first compound 0.6325 µM),relative viability ([1]; first compound 2 µM),relative viability (Trametinib + Dasatinib; first compound 0.0025 µM),relative viability (Trametinib + Dasatinib; first compound 0.007906 µM),relative viability (Trametinib + Dasatinib; first compound 0.025 µM),relative viability (Trametinib + Dasatinib; first compound 0.07906 µM),relative viability (Trametinib + Dasatinib; first compound 0.25 µM),relative viability ([2]; first compound 0.02 µM),relative viability ([2]; first compound 0.06325 µM),relative viability ([2]; first compound 0.6325 µM),relative viability ([2]; first compound 2 µM),relative viability ([2]; first compound 0.2 µM),relative viability ([1]; first compound 0.2 µM)
NCI-H650,1.12,1.31,1.01,1.06,0.884,0.573,0.775,0.757,0.889,0.573,0.615,0.541,0.445,0.356,0.586,0.601,0.771,0.797,,
IA-LM,,,,,,,,,,,,,,,0.732,0.724,0.615,0.521,0.668,
A-427,1.08,1.1,0.977,0.839,0.679,0.849,0.902,1.08,1.01,0.75,0.397,0.178,0.262,0.171,0.924,0.775,1,1.16,,
NCI-H2347,0.425,0.44,0.362,0.302,0.337,,0.288,0.339,0.569,0.234,0.16,0.162,0.172,0.149,0.588,0.802,0.694,0.674,0.607,0.352
NCI-H1793,0.617,0.481,0.315,0.365,0.338,0.228,0.202,0.186,0.189,0.26,0.25,0.244,0.212,0.242,,,,,,0.204
NCI-H1651,0.554,0.618,0.426,0.47,0.278,0.953,0.772,1.13,1.02,0.487,0.384,0.404,0.284,0.217,0.804,0.905,0.819,0.895,0.876,1.02
HCC-78,0.843,0.888,0.893,0.934,0.924,,,,,0.359,0.265,0.23,0.294,0.25,0.335,0.26,0.337,0.372,0.326,
NCI-H23,0.549,0.47,0.437,0.305,0.264,0.232,0.178,0.194,0.222,0.544,0.74,0.293,0.231,0.172,0.453,0.504,0.62,0.624,,
LOU-NH91,0.403,0.414,0.418,0.374,0.382,0.335,0.302,0.307,0.266,0.528,0.498,0.468,0.426,0.296,0.74,0.649,0.709,0.724,0.672,0.352
LXF-289,0.844,0.832,0.688,0.672,0.772,0.668,0.662,0.69,0.785,0.192,0.305,0.299,0.28,0.0945,0.775,0.785,0.849,0.895,0.881,0.741
NCI-H460,0.0594,0.0614,0.0626,0.0649,0.0564,0.0416,0.0387,0.0268,0.0415,0.369,0.176,0.138,0.085,0.0431,0.994,0.99,,0.902,0.932,0.0352
NCI-H1792,0.751,0.645,0.363,0.328,0.154,0.447,0.447,0.413,0.643,0.694,0.515,0.652,0.549,0.396,0.759,0.999,,0.898,0.87,
EMC-BAC-2,0.547,0.489,0.572,0.544,0.56,1.19,1.18,1.17,1.19,0.352,0.407,0.419,0.443,0.365,0.644,0.714,0.757,0.832,0.668,1.29
CAL-12T,1.21,1.15,0.753,0.483,0.589,0.22,0.561,0.432,0.381,0.232,0.219,0.268,0.165,0.104,0.552,0.654,0.81,0.743,0.549,0.48
ChaGo-K-1,0.281,0.253,0.261,0.259,0.248,0.54,0.56,0.482,0.59,0.586,0.605,0.567,0.475,0.48,1.07,1.11,1.16,1.21,,0.522
COR-L 105,0.984,0.825,0.69,0.488,0.42,0.634,0.616,0.804,0.85,0.319,0.289,0.194,0.153,0.17,0.655,0.515,0.849,0.885,0.637,0.625
NCI-H1944,0.514,0.429,0.39,0.318,0.29,0.706,0.742,0.767,0.897,0.193,0.177,0.164,0.144,0.145,0.939,0.995,1.24,1.18,,
NCI-H2009,1.06,0.794,0.499,0.368,0.37,0.997,1.03,1.02,1.09,0.203,0.169,0.143,0.168,0.157,0.958,0.97,1.15,1.14,1.05,1.05
SW 900,0.439,0.471,0.487,0.459,0.224,0.191,0.186,0.165,0.176,0.559,0.652,0.46,0.57,0.238,,,,,,
NCI-H441,0.3,0.306,0.247,0.261,0.285,0.341,0.341,0.513,0.36,0.37,0.49,0.249,0.287,0.206,0.972,0.706,0.89,0.767,0.72,0.296

Cell Line,relative viability (Trametinib + Pemetrexed; first compound 0.0025 µM),relative viability (Trametinib + Pemetrexed; first compound 0.007906 µM),relative viability (Trametinib + Pemetrexed; first compound 0.025 µM),relative viability (Trametinib + Pemetrexed; first compound 0.07906 µM),relative viability (Trametinib + Pemetrexed; first compound 0.25 µM),relative viability ([1]; first compound 0.02 µM),relative viability ([1]; first compound 0.06325 µM),relative viability ([1]; first compound 0.6325 µM),relative viability ([1]; first compound 2 µM),relative viability (Trametinib + Dasatinib; first compound 0.0025 µM),relative viability (Trametinib + Dasatinib; first compound 0.007906 µM),relative viability (Trametinib + Dasatinib; first compound 0.025 µM),relative viability (Trametinib + Dasatinib; first compound 0.07906 µM),relative viability (Trametinib + Dasatinib; first compound 0.25 µM),relative viability ([2]; first compound 0.02 µM),relative viability ([2]; first compound 0.06325 µM),relative viability ([2]; first compound 0.6325 µM),relative viability ([2]; first compound 2 µM),relative viability ([2]; first compound 0.2 µM),relative viability ([1]; first compound 0.2 µM)
NCI-H1623,,,,,,0.422,0.473,0.446,0.289,0.487,0.449,0.306,0.378,0.618,,,,,,0.428
NCI-H1437,0.271,0.23,0.265,0.203,0.192,1.14,1.08,1.25,1.24,0.374,0.207,0.162,0.118,0.217,0.878,0.898,0.915,1.14,0.989,1.22
PC-14,0.131,0.113,0.153,0.132,0.141,0.212,0.138,0.173,0.135,0.265,0.234,0.266,0.13,0.0632,0.91,0.791,0.856,0.958,1,
LCLC-103H,0.482,0.495,0.523,0.5,0.519,0.933,0.809,1.07,1.17,0.498,0.512,0.429,0.402,0.446,1.11,1.13,1.13,1.07,1.05,0.934
COR-L23,0.192,0.211,0.23,0.214,0.209,0.623,0.632,0.699,0.789,0.446,0.449,0.502,0.484,0.246,0.631,0.576,0.622,0.671,0.752,0.702
H3255,0.538,0.506,0.514,0.473,0.463,1.03,1,0.86,0.77,0.512,0.334,0.288,0.238,0.346,0.91,0.935,0.888,0.889,0.874,0.786
NCI-H2126,0.647,0.553,0.464,0.538,0.428,1,0.875,0.907,0.932,0.452,0.44,0.395,0.412,0.445,0.994,1,1.03,1.02,1.06,0.852
HCC-366,0.24,0.213,0.236,0.188,0.169,,,,,0.47,0.416,0.32,0.227,0.196,0.351,0.387,0.472,0.398,0.579,
NCI-H727,,,,,,0.365,0.329,0.4,0.271,0.31,0.212,0.347,0.196,0.244,0.835,0.614,0.81,0.808,0.691,0.394
HCC-44,0.647,0.702,0.734,0.763,0.772,1.03,0.925,1.02,1.02,,,,,,0.793,0.73,0.712,0.715,0.722,
ABC-1,,,,,,,0.531,0.678,0.801,0.539,0.467,0.365,0.384,0.371,1.03,0.988,1.04,1.43,1.03,
EBC-1,,,,,,,,,,,,,,,0.233,0.182,0.183,0.207,0.192,
NCI-H1703,,,,,,,,,,,,,,,0.724,0.783,0.699,0.604,0.556,
NCI-H1395,0.952,0.837,0.708,0.609,0.466,0.876,0.595,0.696,0.669,0.44,0.662,0.454,0.378,0.345,,,,,,0.521
NCI-H1299,,,,,,,,,,,,,,,0.937,0.945,1.07,0.901,0.911,
A549,,,,,,,,,,,,,,,0.631,0.755,0.828,0.75,0.724,
NCI-H522,1.04,1.07,0.75,0.742,0.752,1.32,0.937,1.18,1.12,0.892,0.913,0.665,0.724,0.671,,,,,,1.02
NCI-H1648,0.676,0.69,0.883,0.752,0.559,,,,,,,,,,,,,,,
NCI-H2342,0.688,0.727,0.459,0.689,0.685,0.685,0.743,0.757,0.669,0.298,0.28,,0.3,0.303,,,,,,0.6
Calu-6,,,,,,,,,,,,,,,0.675,0.783,0.772,0.816,0.815,
